The results in this text go back to publication PMC10674446, “Synthesis and Structural Characterization of Novel Dimers of Dipyridothiazine as Promising Antiproliferative Agents” (Molecules, 2023).

Usually IC50 stands for the midpoint of a concentration-inhibition curve. As a reminder, the melting point is the temperature, or range, at which the solid turns liquid.

Data set [1] concerns MCF7 breast cancer. The experiment in a line: MTT cell viability assay, MCF7. It counts as cell-based, human. Particulars: for Selectivity Index (SI), MCF-7: SI = IC50 L6 / IC50 MCF-7; for IC50: Homo sapiens, MCF7, mean ± SD, n = 3, read-out: Anticancer Activity IC50, MCF-7. Here is the method: (§1) MCF7, SW480 and normal L6 muscle cells were bought from the ATCC company, USA [34]. MCF7 and SW480 adenocarcinoma cell lines were cultured, respectively, using Dulbecco’s Modified Eagle Medium (DMEM with 4.5 g/L glucose; HIMEDIA, Mumbai, India) supplemented with 100 U/mL penicillin, 100 µg/mL of streptomycin and 10% fetal bovine serum (FBS; Cat No. FBSEU500; Tico Europe, Amstelveen, The Netherlands) under standard conditions until the desired confluency was reached. Once the desired cell confluency of 70–80% was observed, the cells were sub-cultured through trypsinization, and the cell count was calculated prior to seeding in the 96-well microplate. Similarly, L6 rat myoblasts were cultured accordingly as normal cell lines to compare against MCF7 and SW480 cell lines during the MTT cell viability assay.
(§2) Cells were seeded in a 96-well microplate at a density of 1 × 10^4 cells per well and were allowed to adhere to the wells overnight. […] The cells were exposed to the tested substances at concentrations ranging from 50, 25, 10, 5 and 1 μM. The treatment was conducted over three periods of 24 h, 48 h and 72 h, respectively. […] Lastly, the spent MTT medium was removed and DMSO was added to the wells, where the purple formazan crystals were solubilized, and the intensity of the purple hue was spectrophotometrically measured at 570 nm.
(§3) All values were represented as means ± standard deviations (n = 3). […] The IC50 values were further subjected to one-way ANOVA analysis along with the post hoc test to determine the statistical significance between the treatment groups and the negative control (untreated cells).

The test system of data set [2] is SW480 colon cancer. The experiment in a line: MTT cell viability assay, SW480. It is filed as cell-based, human. Conditions: for Selectivity Index (SI), SW480: SI = IC50 L6 / IC50 SW480; for IC50: Homo sapiens, SW480, mean ± SD, n = 3, read-out: Anticancer Activity IC50, SW480. Here is the method:
as §1, §2, §3
In general terms: Tetrazolium assays rely on reduction of a dye to a coloured formazan, in cell work by metabolically active cells.

Data set [3] deals with normal L6 rat myoblasts. The experiment in a line: MTT cell viability assay, normal L6 cells. It is filed as cell-based. Particulars: Rattus norvegicus, Myoblast, mean ± SD, n = 3, read-out: Anticancer Activity IC50, L6. How it is done: as §1
(§4) Cells were seeded in a 96-well microplate at a density of 1 × 10^4 cells per well and were allowed to adhere to the wells overnight. Subsequently, the cells were treated with varying concentrations of 12 compounds (1a,b,c–4a,b,c) along with doxorubicin as the positive control. The cells were exposed to the tested substances at concentrations ranging from 50, 25, 10, 5 and 1 μM. The treatment was conducted over three periods of 24 h, 48 h and 72 h, respectively. After the treatment period, thiazolyl blue tetrazolium bromide (MTT) solution was added to each well at a concentration of 0.5 mg/mL and incubated for 3 h in a 37 °C incubator supplemented with 5% CO2. Lastly, the spent MTT medium was removed and DMSO was added to the wells, where the purple formazan crystals were solubilized, and the intensity of the purple hue was spectrophotometrically measured at 570 nm.
(§5) All values were represented as means ± standard deviations (n = 3). The data were statistically analyzed using GraphPad Prism 10.1.0, where the IC50 values of each compound treated on different cell lines at different time points were obtained by extrapolating the logarithmic dose–response curve. The IC50 values were further subjected to one-way ANOVA analysis along with the post hoc test to determine the statistical significance between the treatment groups and the negative control (untreated cells).

In data set [4] the test system is MCF7 and SW480 cancer cells. The experiment in a line: MTT cell viability assay, both cancer cell lines. It is filed as cell-based, human. Particulars: for toxicity towards both MCF7 and SW480 cancer cells (in words): 24, 48 and 72 h of incubation; for IC50: Homo sapiens, MCF7 and SW480, span over 24, 48 and 72 h, read-out: IC50 range towards both cancer cell lines. How it is done:
as §1, §4, §5

Where [5] appears, read: 72 h treatment period, NA = IC50 beyond the tested concentration range (1-50 µM).

Each structure is given as a SMILES string. Like-named read-outs stand apart in the source and are kept apart here.

`c1cc(CN2c3cccnc3Sc3cccnc32)nc(CN2c3cccnc3Sc3cccnc32)c1` [1c, 2,6-bis((dipyrido[2,3-b:2′,3′-e][1,4]thiazin-10-yl)methyl)pyridine]: the melting point was 245 to 247 °C. In addition, in data set [1] (24 h), the “Selectivity Index (SI), MCF-7” value is 2.25. The “Selectivity Index (SI), MCF-7” value in data set [1] (48 h) is 3.56. Further, the “Selectivity Index (SI), MCF-7” value in data set [1] (72 h) is given as 5.5. For the same compound, in data set [1] (24 h treatment period), the IC50 is 5 ± 1.29 µM. Further, the IC50 in data set [1] (48 h treatment period) was determined as 0.75 ± 1.85 µM. In addition, the IC50 in data set [1] (setting [5]) was found to be 1.14 ± 0.51 µM. The “Selectivity Index (SI), SW480” value in data set [2] (24 h) came out at 16.5. The “Selectivity Index (SI), SW480” value in data set [2] (48 h) is reported as 0.67. In addition, in data set [2] (72 h), the “Selectivity Index (SI), SW480” value is given as 1.5. Further, in data set [2] (24 h treatment period), the IC50 turned out to be 0.67 µM. The IC50 in data set [2] (48 h treatment period) amounted to 3.97 ± 1.27 µM. Besides, the IC50 in data set [2] (72 h treatment period) was 4.27 ± 0.19 µM. In data set [3] (24 h treatment period), the IC50 stood at 11.3 ± 0.99 µM. The IC50 in data set [3] (48 h treatment period) was 2.67 ± 2.13 µM. For the same compound, the IC50 in data set [3] (72 h treatment period) came out at 6.82 ± 1.24 µM. Also, in data set [4], the “toxicity towards both MCF7 and SW480 cancer cells (in words)” value is on record as “significantly toxic”; the IC50 is 0.67 to 5 µM.

The compound `c1ccc(CN2c3cnccc3Sc3cccnc32)c(CN2c3cnccc3Sc3cccnc32)c1` [2a, 1,2-bis((dipyrido[3,2-b:3′,4′-e][1,4]thiazin-10-yl)methyl)benzene] showed a melting point of 260 to 261 °C. Besides, the “Selectivity Index (SI), MCF-7” value in data set [1] (24 h) was 3.5. The “Selectivity Index (SI), MCF-7” value in data set [1] (48 h) stood at 1.83. Further, the “Selectivity Index (SI), MCF-7” value in data set [1] (72 h) worked out at 1.59. Further, in data set [1] (24 h treatment period), the IC50 was found to be 6.27 ± 0.95 µM. Also, the IC50 in data set [1] (48 h treatment period) turned out to be 9.65 ± 0.63 µM. Further, in data set [1] (setting [5]), the IC50 was found to be 8.16 ± 0.97 µM. In data set [2] (24 h), the “Selectivity Index (SI), SW480” value is listed as 2.32. In addition, the “Selectivity Index (SI), SW480” value in data set [2] (48 h) turned out to be 2.03. Moreover, the “Selectivity Index (SI), SW480” value in data set [2] (72 h) was determined as 1.75. Further, the IC50 in data set [2] (24 h treatment period) came to 9.68 ± 0.17 µM. Besides, the IC50 in data set [2] (48 h treatment period) turned out to be 8.74 ± 0.03 µM. For the same compound, in data set [2] (72 h treatment period), the IC50 was 7.433 ± 0.02 µM. Also, the IC50 in data set [3] (24 h treatment period) was determined as 22.1 ± 1.42 µM. The IC50 in data set [3] (48 h treatment period) stood at 17.7 ± 0.27 µM. The IC50 in data set [3] (72 h treatment period) came to 13 ± 1.32 µM. In addition, in data set [4], the “toxicity towards both MCF7 and SW480 cancer cells (in words)” value is “significantly toxic”; the IC50 is 6.27 to 9.68 µM.

Take `c1cc(CN2c3cnccc3Sc3cccnc32)nc(CN2c3cnccc3Sc3cccnc32)c1` [2c, 2,6-bis((dipyrido[3,2-b:3′,4′-e][1,4]thiazin-10-yl)methyl)pyridine]: the melting point was 266 to 268 °C. Further, the “Selectivity Index (SI), MCF-7” value in data set [1] (24 h) worked out at 0.76. The “Selectivity Index (SI), MCF-7” value in data set [1] (48 h) is on record as 1.91. In addition, the “Selectivity Index (SI), MCF-7” value in data set [1] (72 h) was found to be 1.80. Moreover, the IC50 in data set [1] (24 h treatment period) came to 23.2 ± 0.33 µM. For the same compound, the IC50 in data set [1] (48 h treatment period) came to 10.02 ± 0.05 µM. Moreover, in data set [1] (setting [5]), the IC50 was 9.96 ± 0.03 µM. The “Selectivity Index (SI), SW480” value in data set [2] (24 h) is recorded as 1.02. For the same compound, in data set [2] (48 h), the “Selectivity Index (SI), SW480” value is given as 0.91. Besides, the “Selectivity Index (SI), SW480” value in data set [2] (72 h) was found to be 1.12. In addition, the IC50 in data set [2] (24 h treatment period) was 17.2 ± 1.46 µM. The IC50 in data set [2] (48 h treatment period) was 21.1 ± 0.99 µM. The IC50 in data set [2] (72 h treatment period) turned out to be 15.9 ± 1.48 µM. Besides, the IC50 in data set [3] (24 h treatment period) is 17.6 ± 0.85 µM. Also, the IC50 in data set [3] (48 h treatment period) is 19.23 ± 0.13 µM. In addition, the IC50 in data set [3] (72 h treatment period) is 18 ± 0.18 µM. Besides, the “cytotoxicity towards MCF7 compared with SW480 (in words)” value in data set [4] (breast cancer cell line MCF7 versus colon cancer cell line SW480) is recorded as “higher cytotoxicity”.

`c1ccc(CN2c3ccncc3Sc3ccncc32)c(CN2c3ccncc3Sc3ccncc32)c1` [3a, 1,2-bis((dipyrido[3,4-b:3′,4′-e][1,4]thiazin-10-yl)methyl)benzene] returned a melting point of 280 to 282 °C. For the same compound, the “Selectivity Index (SI), MCF-7” value in data set [1] (24 h) was 6.46. For the same compound, the “Selectivity Index (SI), MCF-7” value in data set [1] (48 h) is recorded as 6.85. Besides, the “Selectivity Index (SI), MCF-7” value in data set [1] (72 h) was found to be 3.51. In data set [1] (24 h treatment period), the IC50 came to 4.77 ± 0.84 µM. Further, the IC50 in data set [1] (48 h treatment period) is 3.17 ± 0.13 µM. For the same compound, the IC50 in data set [1] (setting [5]) is 6.1 ± 1.33 µM. For the same compound, the “Selectivity Index (SI), SW480” value in data set [2] (24 h) was 5.02. In addition, the “Selectivity Index (SI), SW480” value in data set [2] (48 h) was found to be 5.22. Besides, the “Selectivity Index (SI), SW480” value in data set [2] (72 h) was found to be 4.69. In addition, the IC50 in data set [2] (24 h treatment period) stood at 6.12 ± 0.21 µM. The IC50 in data set [2] (48 h treatment period) was found to be 4.16 ± 0.08 µM. For the same compound, the half-maximal inhibitory concentration (IC50) in data set [2] (72 h treatment period) came to 4.56 ± 1.18 µM. For the same compound, the IC50 in data set [3] (24 h treatment period) is 30.8 ± 0.47 µM. Besides, the IC50 in data set [3] (48 h treatment period) came out at 21.7 ± 0.48 µM. The IC50 in data set [3] (72 h treatment period) worked out at 21.41 ± 0.17 µM. Further, in data set [4], the “toxicity towards both MCF7 and SW480 cancer cells (in words)” value is given as “significantly toxic”; the IC50 was in the range of 3.17 to 6.12 µM.
